For three compounds, melting point results are on record in patent US6395905B1, “Tetrahydroindazole derivatives as ligands for GABA-A α 5 receptors” (Merck Sharp & Dohme Ltd., priority 1999, dated 2002).

The melting point is the temperature of the solid-liquid transition.

On to `NCCc1ccc(NC(=O)c2n[nH]c3c2C(=O)CCC3)cc1` [Example 5, 4-Oxo-4,5,6,7-tetrahydro-1H-indazole-3-carboxylic acid 4-(2-aminoethyl)phenylamide], for which the melting point is 250 °C (dec.).
Take `O=C(Nc1ccccn1)c1n[nH]c2c1C(=O)CCC2` [Example 3, 4-Oxo-4,5,6,7-tetrahydro-1H-indazole-3-carboxylic acid pyridin-2-ylamide]: the melting point is 250 °C (dec.).
To `O=C(Nc1ccccc1)c1n[nH]c2c1C(=O)CCC2` [Example 1, 4-Oxo-4,5,6,7-tetrahydro-1H-indazole-3-carboxylic acid phenylamide] belongs 244 °C (dec.).
